Experimental data published in PubChem BioAssay AID330 (DTP/NCI, 2004).
Values joined by “and” are separate entries in the source; they are usually repeats but may differ in a detail not shown here. Identical values can stand only once. Inconclusive results and toxic doses are left out. Rule for the calls: active = survival T/C of 150% or more; inactive = T/C below 125% in these data.

Tested on: P388 leukemia ip, CD2F1 mice, survival T/C
Experiment: NCI In Vivo Anticancer Drug Screen. Data for tumor model P388 Leukemia (intraperitoneal) in CD2F1 (CDF1) mice
Conditions: endpoint: median survival time, higher = longer survival
Summary of the method: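 Mice carrying the transplanted tumor received test compound or vehicle. Survival was recorded in each group, and the value is the treated-group measurement divided by that of the vehicle-treated control group.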

[1] = dose: 60.0 mg/kg/injection, schedule: Q01DX005 (ip), vehicle: saline with Tween-80
[2] = dose: 120.0 mg/kg/injection, schedule: Q01DX005 (ip), vehicle: saline with Tween-80
[3] = dose: 240.0 mg/kg/injection, schedule: Q01DX005 (ip), vehicle: saline with Tween-80
[4] = dose: 12.5 mg/kg/injection, schedule: Q01DX009 (ip), vehicle: saline with Tween-80
[5] = dose: 50.0 mg/kg/injection, schedule: Q01DX009 (ip), vehicle: saline with Tween-80
[6] = dose: 100.0 mg/kg/injection, schedule: Q01DX009 (ip), vehicle: saline with Tween-80
[7] = dose: 200.0 mg/kg/injection, schedule: Q01DX009 (ip), vehicle: saline with Tween-80
[8] = dose: 50.0 mg/kg/injection, schedule: Q01DX005 (ip), vehicle: saline with Tween-80
[9] = dose: 100.0 mg/kg/injection, schedule: Q01DX005 (ip), vehicle: saline with Tween-80
[10] = dose: 200.0 mg/kg/injection, schedule: Q01DX005 (ip), vehicle: saline with Tween-80

Measured: T/C

COc1cc2cc(-c3cc(OC)c(OC)c(OC)c3)c3c(c2cc1OC)CNC3
inactive: dose: 3.12 mg/kg/injection, schedule: Q04DX003 (ip), vehicle: saline with Tween-80 100 % of control | dose: 6.25 mg/kg/injection, schedule: Q04DX003 (ip), vehicle: saline with Tween-80 105 % of control | dose: 12.5 mg/kg/injection, schedule: Q04DX003 (ip), vehicle: saline with Tween-80 100 % of control | dose: 25.0 mg/kg/injection, schedule: Q04DX003 (ip), vehicle: saline with Tween-80 98 % of control | dose: 50.0 mg/kg/injection, schedule: Q04DX003 (ip), vehicle: saline with Tween-80 97 % of control

N#CC(C=C(c1ccccc1)c1ccccc1)c1ccccc1 (stereo not given)
inactive: dose: 100.0 mg/kg/injection, schedule: Q04DX003 (ip), vehicle: saline 98 % of control | dose: 200.0 mg/kg/injection, schedule: Q04DX003 (ip), vehicle: saline 98 % of control | dose: 400.0 mg/kg/injection, schedule: Q04DX003 (ip), vehicle: saline 96 % of control

O=C(NC(CC1CCC2OCOC2C1)C(=O)O)c1ccccc1 (stereo not given)
inactive: [1] 111 % of control | [2] 102 % of control | [3] 105 % of control

COc1ccc(Cl)cc1NC(=O)Oc1ccncc1
inactive: dose: 0.78 mg/kg/injection, schedule: Q01DX009 (ip), vehicle: saline with Tween-80 94 % of control | dose: 1.56 mg/kg/injection, schedule: Q01DX009 (ip), vehicle: saline with Tween-80 88 % of control | dose: 3.12 mg/kg/injection, schedule: Q01DX009 (ip), vehicle: saline with Tween-80 87 % of control and 88 % of control | dose: 6.25 mg/kg/injection, schedule: Q01DX009 (ip), vehicle: saline with Tween-80 86 % of control | [4] 88 % of control | [5] 87 % of control | [6] 101 % of control | [7] 94 % of control

CCN(CC)CCNc1ccc(COC(C)=O)c2oc3ccccc3c(=O)c12
inactive: dose: 6.25 mg/kg/injection, schedule: Q01DX005 (ip), vehicle: saline with Tween-80 111 % of control | dose: 12.5 mg/kg/injection, schedule: Q01DX005 (ip), vehicle: saline with Tween-80 118 % of control

CCOC(=O)/C=C1/Nc2ccc(Cl)cc2NC1=O (tested in a mixture with another compound)
inactive: dose: 50.0 mg/kg/injection, schedule: Q01DX009 (ip), vehicle: distilled water + Tween-80 + alcohol 96 % of control | dose: 100.0 mg/kg/injection, schedule: Q01DX009 (ip), vehicle: distilled water + Tween-80 + alcohol 88 % of control | dose: 200.0 mg/kg/injection, schedule: Q01DX009 (ip), vehicle: distilled water + Tween-80 + alcohol 88 % of control

Cc1ccc(C)c(NC(=O)CCC(=O)C(C#N)c2nc3ccccc3s2)c1 (stereo not given)
inactive: [1] 103 % of control | [2] 102 % of control | [3] 97 % of control

CNC1Cc2c[nH]c3cccc(c23)C12C=C(C)C(=O)O2 (stereo not given)
inactive: dose: 75.0 mg/kg/injection, schedule: Q01DX009 (ip), vehicle: saline with Tween-80 120 % of control and 115 % of control | dose: 150.0 mg/kg/injection, schedule: Q01DX009 (ip), vehicle: saline with Tween-80 120 % of control and 115 % of control | dose: 300.0 mg/kg/injection, schedule: Q01DX009 (ip), vehicle: saline with Tween-80 120 % of control

Cc1cc(O)c(C)c(C(=O)O)c1
inactive: [5] 99 % of control | [6] 99 % of control | [7] 92 % of control

CCCC(O)C(NC(=O)c1ccccc1)C(=O)O (stereo not given)
inactive: [5] 92 % of control | [6] 98 % of control and 95 % of control | [7] 95 % of control and 98 % of control

CC1C(=O)OC2C1CCC1(C)C=CC(=O)C3(C)OC213 (stereo not given)
inactive: dose: 60.0 mg/kg/injection, schedule: Q01DX005 (ip), vehicle: Klucel (hydroxypropylcellulose) (HPC) 100 % of control | dose: 120.0 mg/kg/injection, schedule: Q01DX005 (ip), vehicle: Klucel (hydroxypropylcellulose) (HPC) 104 % of control | dose: 240.0 mg/kg/injection, schedule: Q01DX005 (ip), vehicle: Klucel (hydroxypropylcellulose) (HPC) 105 % of control

CCN(CC)CCCNc1cc(C)nc2c1ccc1c2ccc2c(NCCCN(CC)CC)cc(C)nc21
inactive: dose: 12.5 mg/kg/injection, schedule: Q01DX009 (ip), vehicle: water 105 % of control | dose: 25.0 mg/kg/injection, schedule: Q01DX009 (ip), vehicle: water 103 % of control | dose: 50.0 mg/kg/injection, schedule: Q01DX009 (ip), vehicle: water 116 % of control

O=C1N=C2C=CC=CN2C(=O)C1Cc1ccccc1 (stereo not given)
inactive: [6] 120 % of control | [7] 110 % of control | dose: 400.0 mg/kg/injection, schedule: Q01DX009 (ip), vehicle: saline with Tween-80 90 % of control

O=Cc1ccccc1
inactive: dose: 12.5 mg/kg/injection, schedule: Q01DX009 (ip), vehicle: Klucel (hydroxypropylcellulose) (HPC) 98 % of control | dose: 25.0 mg/kg/injection, schedule: Q01DX009 (ip), vehicle: Klucel (hydroxypropylcellulose) (HPC) 99 % of control and 100 % of control and 115 % of control | dose: 50.0 mg/kg/injection, schedule: Q01DX009 (ip), vehicle: Klucel (hydroxypropylcellulose) (HPC) 100 % of control and 103 % of control and 107 % of control | dose: 100.0 mg/kg/injection, schedule: Q01DX009 (ip), vehicle: Klucel (hydroxypropylcellulose) (HPC) 100 % of control and 97 % of control and 98 % of control | dose: 200.0 mg/kg/injection, schedule: Q01DX009 (ip), vehicle: Klucel (hydroxypropylcellulose) (HPC) 100 % of control and 109 % of control and 95 % of control | dose: 0.25 % in 0.5 ml injection vol, schedule: Q01DX009 (ip), vehicle: water 99 % of control | dose: 400.0 mg/kg/injection, schedule: Q01DX009 (ip), vehicle: Klucel (hydroxypropylcellulose) (HPC) 93 % of control and 98 % of control | dose: 0.5 % in 0.5 ml injection vol, schedule: Q01DX009 (ip), vehicle: water 100 % of control | dose: 1.0 % in 0.5 ml injection vol, schedule: Q01DX009 (ip), vehicle: water 100 % of control

CCC(CC)C(=O)NCC(=O)NO
inactive: dose: 25.0 mg/kg/injection, schedule: Q01DX005 (ip), vehicle: saline with Tween-80 100 % of control | [8] 103 % of control | [9] 100 % of control | [10] 95 % of control

CCOC(=O)CCC(C)(C#N)c1ccccc1 (stereo not given)
inactive: [4] 94 % of control | dose: 25.0 mg/kg/injection, schedule: Q01DX009 (ip), vehicle: saline with Tween-80 99 % of control | [5] 103 % of control | [6] 87 % of control

COc1ccc(C(Cc2cc(OC)c(OC)cc2Br)NC=O)cc1OC (stereo not given)
inactive: [8] 89 % of control | [9] 90 % of control | [10] 91 % of control
